According to patent US20060135515A1, “Heterocyclic amides and their use treating thromboembolic diseases and tumors” (priority 2002, published 2006):

Experiments:
FXa = FXa (Homo sapiens, UniProt P00742); assay: Inhibition of factor Xa (FXa-IC50); type: biochemical
From the text: The inhibition of factor Xa by the compounds according to the invention and the measurement of the anticoagulant and antithrombotic activity can be determined by conventional in-vitro or in-vivo methods. A suitable method is described, for example, by J. Hauptmann et al. in Thrombosis and Haemostasis 1990, 63, 220-223.
The inhibition of factor Xa can be measured, for example by the method of T. Hara et al. in Thromb. Haemostas. 1994, 71, 314-319.

TF/FVIla = TF/FVIla (Homo sapiens, UniProt P08709); assay: Inhibition of TF/factor VIIa (TF/FVIIa-IC50); type: biochemical
Sequence of TF/FVIla (P08709 213-466 limits assumed): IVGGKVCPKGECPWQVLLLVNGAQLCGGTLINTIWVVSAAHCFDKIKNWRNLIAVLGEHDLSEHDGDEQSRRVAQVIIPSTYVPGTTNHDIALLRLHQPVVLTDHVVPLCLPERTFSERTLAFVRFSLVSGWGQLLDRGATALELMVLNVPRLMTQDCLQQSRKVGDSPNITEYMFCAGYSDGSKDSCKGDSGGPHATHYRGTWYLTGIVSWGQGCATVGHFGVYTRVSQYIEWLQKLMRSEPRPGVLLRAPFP
Sequence of TF/FVIla (P08709 61-212 partner limits assumed): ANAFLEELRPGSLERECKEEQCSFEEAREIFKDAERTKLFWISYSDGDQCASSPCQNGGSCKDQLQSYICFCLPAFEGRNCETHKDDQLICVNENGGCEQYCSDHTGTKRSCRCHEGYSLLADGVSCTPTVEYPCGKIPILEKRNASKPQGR
Sequence of TF/FVIla (P13726 33-295 partner): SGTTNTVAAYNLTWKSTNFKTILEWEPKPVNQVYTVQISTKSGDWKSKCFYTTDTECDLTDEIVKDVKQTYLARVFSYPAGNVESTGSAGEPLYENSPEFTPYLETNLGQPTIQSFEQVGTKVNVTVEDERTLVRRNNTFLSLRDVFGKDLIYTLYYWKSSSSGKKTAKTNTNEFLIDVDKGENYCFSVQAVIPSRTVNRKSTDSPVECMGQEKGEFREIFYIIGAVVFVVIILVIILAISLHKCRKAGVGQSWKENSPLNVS
From the text: The inhibition of factor VIIa by the compounds according to the invention and the measurement of the anticoagulant and antithrombotic activity can be determined by conventional in-vitro or in-vivo methods. A conventional method for the measurement of the inhibition of factor VIIa is described, for example, by H. F. Ronning et al. in Thrombosis Research 1996, 84, 73-81.

Sequence of FXa (P00742 235-488 limits assumed): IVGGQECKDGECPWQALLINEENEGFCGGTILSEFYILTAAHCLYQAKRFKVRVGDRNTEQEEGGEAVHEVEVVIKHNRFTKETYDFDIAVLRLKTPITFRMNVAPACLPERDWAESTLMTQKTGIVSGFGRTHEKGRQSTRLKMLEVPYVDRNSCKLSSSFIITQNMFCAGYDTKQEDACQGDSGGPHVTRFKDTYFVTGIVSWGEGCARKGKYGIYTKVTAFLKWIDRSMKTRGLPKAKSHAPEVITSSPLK
Sequence of FXa (P00742 41-179 partner limits assumed): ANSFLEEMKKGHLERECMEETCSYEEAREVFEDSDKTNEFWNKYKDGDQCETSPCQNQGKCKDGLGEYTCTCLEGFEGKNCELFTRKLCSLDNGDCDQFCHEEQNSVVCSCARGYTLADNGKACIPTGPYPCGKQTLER

In the case of `CCCC(NC(=O)Nc1ccc(Cl)s1)C(=O)Nc1ccc(N2CCOCC2=O)cc1` (stereo not shown) [Compound A1, N-[4-(3-oxomorpholin-4-yl)-phenyl]-2-[3-(5-chlorothiophen-2-yl)ureido]valeramide], the IC50 (FXa) is reported as 190 nM and the IC50 (TF/FVIla) is reported as 180 nM.

In the case of `CCC[C@@H](NC(=O)Nc1ccc(Cl)s1)C(=O)Nc1ccc(N2CCOCC2=O)c(C)c1` [Compound A2, (R)-2-[3-(5-chlorothiophen-2-yl)ureido]-N-[4-(3-oxomorpholin-4-yl)-3-methylphenyl]valeramide], the IC50 (FXa) is reported as 66 nM and the IC50 (TF/FVIla) is reported as 66 nM.
